Source: patent US5510469A, “2-acyloxy-4-morpholinyl anthracyclines” (priority 1990, dated 1996)
Converted amounts (≈) assume the structure as drawn. Read-outs that look alike come from different tables or passages of the source.

Assays:
LoVo cells = assay: Colony assay (cytotoxicity after 4 hr treatment), LoVo cells; assay type: cell-based; conditions: Homo sapiens, read-out: IC50 (concentration inhibiting 50% colony growth), LoVo
Description: (§1) 3'-deamino-3' 2-benzoyl-4-morpholinyl!doxorubicin (1a) was tested "in vitro" against LoVo and LoVo-resistant-doxorubicin (LoVo/DX) cells using a single cell plating technique after 4 hr treatment (Colony assay). The 50% inhibition concentration (IC50) was calculated using concentration-response curves. Compound 1a was tested in comparison with Doxorubicin.
(§2) Cytotoxicity after 4 hr treatment IC50 = ng/ml^(1)
(§3) ^(1) IC50 = concentration inhibiting 50% colony growth

LoVo/DX cells = assay: Colony assay (cytotoxicity after 4 hr treatment), LoVo-resistant-doxorubicin (LoVo/DX) cells; assay type: cell-based; conditions: for IC50: read-out: IC50 (concentration inhibiting 50% colony growth), LoVo/DX; for R.I. = Resistance Index = (IC50 LoVo/DX)/(IC50 LoVo): ratio LoVo/DX to LoVo
Description: as §1, §2, §3
^(2) R.I. = Resistance Index = (IC50 LoVo/DX)/(IC50 LoVo)

[1] = system: P388/DX (Johnson) Leukemias; assay: Antitumor activity in vivo against P388 murine leukemia resistant to Doxorubicin (P388/DX, Johnson); conditions: P388/DX 10^5 cells/mouse i.v. in CDF mice; treatment on day 1; at optimal dose: 1a 1.2 mg/kg, Doxorubicin 13-16.9 mg/kg
Description: Antitumor activity against P388/DX
^(1) 10^5 cells/mouse (P388/DX, Johnson) transplanted i.v. in CDF
Treatment on day 1 after inoculation of tumor.
^(3) Median survival time; % over […] controls.
Compound 1a was evaluated "in vivo" against P388 murine Leukemias resistant to Doxorubicin, in comparison with Doxorubicin.

For `COc1cccc2c1C(=O)c1c(O)c3c(c(O)c1C2=O)C[C@@](O)(C(=O)CO)C[C@@H]3O[C@H]1C[C@H](N2CCOC(OC(=O)c3ccccc3)C2)[C@H](O)[C@H](C)O1` (some centres unmarked) [Compound 1a], the IC50 (LoVo cells; LoVo, 4 h) was 0.0069 µg/mL (≈ 0.0094 µM), the IC50 (LoVo/DX cells; LoVo/DX, 4 h) was 0.027 µg/mL (≈ 0.0368 µM) and the “R.I. = Resistance Index = (IC50 LoVo/DX)/(IC50 LoVo)” value (LoVo/DX cells; 4 hr treatment) was 3.9. The “T/C % (median survival time; % over treated controls)” value [1] was 175%.

For `COc1cccc2c1C(=O)c1c(O)c3c(c(O)c1C2=O)C[C@@](O)(C(=O)CO)C[C@@H]3O[C@H]1C[C@H](N)[C@H](O)[C@H](C)O1` [Doxorubicin, doxorubicin], the IC50 (LoVo cells; LoVo cells, 4 hr treatment, colony assay) was 0.06 µg/mL (≈ 0.11 µM), the IC50 (LoVo/DX cells; LoVo/DX cells, 4 hr treatment, colony assay) was 2.16 µg/mL (≈ 3.97 µM) and the “R.I. = Resistance Index = (IC50 LoVo/DX)/(IC50 LoVo)” value (LoVo/DX cells; 4 hr treatment) was 36. The “T/C % (median survival time; % over treated controls)” value [1] was 86-100%.
